Data as given in patent publication US8304371B2, “Insecticidal arylpyrrolines” (Bayer Cropscience AG, priority 2008, dated 2012).

Assays:
Assay type in all cases: in vivo
[1] = system: Tobacco Cutworm (Spodoptera litura) Larvae; test: Test against tobacco cutworm (Spodoptera litura) larvae, leaf dip; conditions: active compound concentration 100 ppm; third-instar larvae; after 7 days
Description: (§1) Unless nomentioned otherwise, the test solutions were prepared as follows:
(§2) Containing as solvent: Dimethylformamide, 3 parts by weight; and as emulsifier: Polyoxyethylene alkyl phenyl ether, 1 part by weight
(§3) To prepare the test solution, 1 part by weight of an active compound is mixed with the above-mentioned amount of solvent containing the above-mentioned amount of emulsifier, and the mixture is diluted with water to the desired concentration.
The leaves of sweet potato were immersed in the test solution at the appropriate concentration, and the leaves were dried in air. The leaves were then placed in a petri dish having a diameter of 9 cm, and ten third-instar larvae of tobacco cutworm were released therein. The petri dish was placed in a temperature chamber at 25° C. After 2 days and 4 days sweet potato leaves were additionally added. After 7 days, the number of dead larvae was counted, to calculate the insecticidal activity. An insecticidal activity of 100% means that all larvae were killed, whereas an insecticidal activity of 0% means that no larva was killed. In the current test, the results of two petri dishes for each partition were averaged.

[2] = system: Two-Spotted Spider Mite (Tetranvchus urticae); test: Test against two-spotted spider mite, spray on kidney bean; conditions: active compound concentration 100 ppm; adult mites; after 7 days
Description: as §1, §2, §3
50 to 100 adult two-spotted spider mites were inoculated onto the leaves of kidney beans at the two-true leaf stage, which plant had been cultivated in a pot having a diameter of 6 cm. After one day, test solution at the appropriate concentration was sprayed thereon in a sufficient amount using a spray gun. After the spraying, the plant pot was placed inside a greenhouse, and after 7 days, the acaricidal activity was calculated. An acaricidal activity of 100% means that all mites were killed, whereas an acaricidal activity of 0% means that no mite was killed.

[3] = system: Cucurbit Leaf Beetle (Aulacophora femoralis); test: Test against cucurbit leaf beetle, cucumber leaf dip; conditions: active compound concentration 100 ppm; second-instar larvae; after 7 days
Description: as §1, §2, §3
Cucumber leaves were immersed in the test solution at the appropriate concentration, and the leaves were dried in air. The leaves were then placed in a plastic cup containing aseptically sterilized black soil, and five second-instar larvae of cucurbit leaf beetle were released therein. After 7 days, the number of dead larvae was counted, and thus the insecticidal activity was calculated. An insecticidal activity of 100% means that all beetles were killed, whereas an insecticidal activity of 0% means that no beetle was killed.

[4] = system: Strain of Green Peach Aphid (Mvzus persicas) which is Resistant to Organic Phosphorus and Carbamate Agents; test: Test against resistant green peach aphid, spray on egg plant; conditions: active compound concentration 500 ppm; after 7 days
Description: as §1, §2, §3
About 30 to 50 of the resistant green peach aphids were inoculated per seedling, onto the leaves of egg plant at the two-true leaf stage, which plant had been cultivated in a pot having a diameter of 6 cm. One day after the inoculation, the test solution at the appropriate concentration was sprayed thereon in a sufficient amount using a spray gun. After the spraying, the plant pot was placed in a greenhouse at 28° C., and after 7 days, the insecticidal activity was calculated. An insecticidal activity of 100% means that all aphids were killed, whereas an insecticidal activity of […] means that no aphid was killed. The test was repeated two times.

CC(=O)NCc1ccc(C2=NCC(c3cc(Cl)cc(Cl)c3)(C(F)(F)F)C2)cc1C(F)(F)F (stereo not drawn) [2-160]
100%: insecticidal activity [1] | acaricidal activity [2] | insecticidal activity [3] | insecticidal activity [4]

O=C(CC(F)(F)F)NCc1ccc(C2=NCC(c3cc(C(F)(F)F)cc(C(F)(F)F)c3)(C(F)(F)F)C2)cc1C(F)(F)F (stereo not drawn) [2-168]
100%: insecticidal activity [1] | acaricidal activity [2] | insecticidal activity [3] | insecticidal activity [4]

O=C(NCc1ccc(C2=NCC(c3cc(C(F)(F)F)cc(C(F)(F)F)c3)(C(F)(F)F)C2)cc1C(F)(F)F)C1CC1 (stereo not drawn) [2-167]
100%: insecticidal activity [1] | acaricidal activity [2] | insecticidal activity [3] | insecticidal activity [4]

CCNC(=O)NCc1ccc(C2=NCC(c3cc(Cl)c(Cl)c(Cl)c3)(C(F)(F)F)C2)cc1Br (stereo not drawn) [2-195]
100%: insecticidal activity [1] | acaricidal activity [2] | insecticidal activity [3] | insecticidal activity [4]

CC(=O)NCc1ccc(C2=NCC(c3cc(Cl)c(Cl)c(Cl)c3)(C(F)(F)F)C2)cc1C(F)(F)F (stereo not drawn) [2-161]
100%: insecticidal activity [1] | acaricidal activity [2] | insecticidal activity [3] | insecticidal activity [4]

O=C(CC(F)(F)F)NCc1ccc(C2=NCC(c3cc(C(F)(F)F)cc(C(F)(F)F)c3)(C(F)(F)F)C2)cc1Br (stereo not drawn) [2-180]
100%: insecticidal activity [1] | acaricidal activity [2] | insecticidal activity [3] | insecticidal activity [4]

N#Cc1cc(C2=NCC(c3cc(Br)cc(Br)c3)(C(F)(F)F)C2)ccc1-n1cncn1 (stereo not drawn) [1-94]
100%: insecticidal activity [1] | acaricidal activity [2] | insecticidal activity [3] | insecticidal activity [4]

O=C(NCc1ccc(C2=NCC(c3cc(Cl)c(Cl)c(Cl)c3)(C(F)(F)F)C2)cc1Cl)C1CC1 (stereo not drawn) [2-158]
100%: insecticidal activity [1] | acaricidal activity [2] | insecticidal activity [3] | insecticidal activity [4]

O=C(CC(F)(F)F)NCc1ccc(C2=NCC(c3cc(Cl)c(Cl)c(Cl)c3)(C(F)(F)F)C2)cc1Br (stereo not drawn) [2-171]
100%: insecticidal activity [1] | acaricidal activity [2] | insecticidal activity [3] | insecticidal activity [4]

CC(=O)NCc1ccc(C2=NCC(c3cc(Cl)c(Cl)c(Cl)c3)(C(F)(F)F)C2)cc1Cl (stereo not drawn) [2-156]
100%: insecticidal activity [1] | acaricidal activity [2] | insecticidal activity [3] | insecticidal activity [4]

O=C(NCc1ccc(C2=NCC(c3cc(Cl)cc(Cl)c3)(C(F)(F)F)C2)cc1C(F)(F)F)C1CC1 (racemic) [2-212]
100%: acaricidal activity [2] | insecticidal activity [3] | insecticidal activity [4]

CCC(=O)NCc1ccc(C2=NCC(c3cc(Cl)c(Cl)c(Cl)c3)(C(F)(F)F)C2)c2ccccc12 (stereo not drawn) [11-6]
100%: insecticidal activity [1] | acaricidal activity [2] | insecticidal activity [3] | insecticidal activity [4]

N#Cc1cc(C2=NCC(c3cc(C(F)(F)F)cc(C(F)(F)F)c3)(C(F)(F)F)C2)ccc1-n1cncn1 (stereo not drawn) [1-72]
100%: insecticidal activity [1] | acaricidal activity [2] | insecticidal activity [3] | insecticidal activity [4]

CCC(=O)NCc1ccc(C2=NCC(c3cc(Cl)c(Cl)c(Cl)c3)(C(F)(F)F)C2)cc1Cl (stereo not drawn) [2-157]
100%: insecticidal activity [1] | acaricidal activity [2] | insecticidal activity [3] | insecticidal activity [4]

O=C(NCc1ccc(C2=NCC(c3cc(Cl)c(Cl)c(Cl)c3)(C(F)(F)F)C2)cc1C(F)(F)F)C1CC1 (stereo not drawn) [2-163]
100%: insecticidal activity [1] | acaricidal activity [2] | insecticidal activity [3] | insecticidal activity [4]

O=C(NCc1ccc(C2=NCC(c3cc(Cl)cc(Cl)c3)(C(F)(F)F)C2)cc1Br)C1CC1 (stereo not drawn) [2-153]
100%: insecticidal activity [1] | insecticidal activity [3]

CCC(=O)NCc1ccc(C2=NCC(c3cc(Cl)cc(Cl)c3)(C(F)(F)F)C2)cc1Br (stereo not drawn) [2-19]
100%: insecticidal activity [1] | insecticidal activity [3]

O=C(CC(F)(F)F)NCc1ccc(C2=NCC(c3cc(Cl)c(Cl)c(Cl)c3)(C(F)(F)F)C2)c2ccccc12 (stereo not drawn) [11-8]
100%: insecticidal activity [1] | acaricidal activity [2] | insecticidal activity [3] | insecticidal activity [4]

CCC(=O)NCc1ccc(C2=NCC(c3cc(Cl)c(Cl)c(C(F)(F)F)c3)(C(F)(F)F)C2)cc1C(F)(F)F (stereo not drawn) [2-205]
100%: insecticidal activity [1] | acaricidal activity [2] | insecticidal activity [3] | insecticidal activity [4]

N#Cc1cc(C2=NCC(c3cc(Cl)cc(C(F)(F)F)c3)(C(F)(F)F)C2)ccc1-n1cncn1 (stereo not drawn) [1-95]
100%: insecticidal activity [1] | acaricidal activity [2] | insecticidal activity [3] | insecticidal activity [4]

O=C(NCc1ccc(C2=NCC(c3cc(Cl)c(Cl)c(C(F)(F)F)c3)(C(F)(F)F)C2)cc1Br)C1CC1 (stereo not drawn) [2-172]
100%: insecticidal activity [1] | acaricidal activity [2] | insecticidal activity [3] | insecticidal activity [4]

O=C(CC(F)(F)F)NCc1ccc(C2=NCC(c3cc(Cl)c(Cl)c(Cl)c3)(C(F)(F)F)C2)cc1C(F)(F)F (stereo not drawn) [2-164]
100%: insecticidal activity [1] | acaricidal activity [2] | insecticidal activity [3] | insecticidal activity [4]

O=C(NCc1ccc(C2=NCC(c3cc(Cl)c(Cl)c(Cl)c3)(C(F)(F)F)C2)c2ccccc12)C1CC1 (stereo not drawn) [11-7]
100%: insecticidal activity [1] | acaricidal activity [2] | insecticidal activity [3] | insecticidal activity [4]

O=C(CC(F)(F)F)NCc1ccc(C2=NCC(c3cc(Cl)c(Cl)c(Cl)c3)(C(F)(F)F)C2)cc1Cl (stereo not drawn) [2-159]
100%: insecticidal activity [1] | acaricidal activity [2] | insecticidal activity [3] | insecticidal activity [4]

O=C(CC(F)(F)F)NCc1ccc(C2=NCC(c3cc(Cl)c(Cl)c(C(F)(F)F)c3)(C(F)(F)F)C2)cc1Br (stereo not drawn) [2-173]
100%: insecticidal activity [1] | acaricidal activity [2] | insecticidal activity [3] | insecticidal activity [4]

CSCC(=O)NCc1ccc(C2=NCC(c3cc(Cl)c(Cl)c(Cl)c3)(C(F)(F)F)C2)cc1C(F)(F)F (racemic) [2-209]
100%: insecticidal activity [1] | acaricidal activity [2] | insecticidal activity [3] | insecticidal activity [4]

O=C(CC(F)(F)F)NCc1ccc(C2=NCC(c3cc(Cl)cc(Cl)c3)(C(F)(F)F)C2)cc1Br (stereo not drawn) [2-154]
100%: insecticidal activity [1] | acaricidal activity [2] | insecticidal activity [3]

O=C(CC(F)(F)F)NCc1ccc(C2=NCC(c3cc(Cl)cc(Cl)c3)(C(F)(F)F)C2)cc1C(F)(F)F (racemic) [2-211]
100%: acaricidal activity [2] | insecticidal activity [3] | insecticidal activity [4]
